Experimental data as given in patent US6617459B2, “Azabicyclo derivatives and their use” (NeuroSearch A/S, priority 1999, dated 2003).
Where two headings read alike, the source gives them in different places.

What was measured:
Format in all cases: biochemical, male Wistar rats
[1] = molecular target: T1, serotonine transporter/uptake site (3H-5-HT uptake, cortical synaptosomes) (Rattus norvegicus, UniProt P31652); test: In vitro inhibition of 3H-5-hydroxytryptamine (3H-5-HT, serotonine) uptake in cortical synaptosomes; settings: for IC50: cortical synaptosomes; for greater potency as inhibitors of serotonine uptake than of either noradrenaline or dopamine uptake: selectivity, 5-HT uptake vs NA or DA uptake, in vitro
T1 construct: Cerebral cortices from male Wistar rats (150-200 g) are homogenised; from tissue; host or cells: rat cerebral cortex, P2 synaptosomal pellet
Excerpt: (§1) The compounds of the invention have been tested for their ability to inhibit reuptake of dopamine(DA) noradrenaline(NA) and serotonine(5-HT) in synaptosomes.
(§2) Specific neurotransmitter transporters/uptake sites on nerve terminals presumably function to terminate neuronal signalling by removing the neurotransmitters dopamine, noradrenaline and serotonine, respectively, from the synaptic cleft. The activity of the transporter integral proteins can be measured in vitro by synaptosomal uptake of ^3H-dopamine, ^3H-noradrenaline and ^3H-serotonine, respectively.
In vitro Inhibition of ^3H-5-hydroxytryptamine (^3H-5-HT, Serotonine) Uptake in Cortical Synaptosomes
(§3) Tissue Preparation: Preparations are performed at 0-4° C. unless otherwise indicated. Cerebral cortices from male Wistar rats (150-200 g) are homogenised for 5-10 sec in 100 volumes of ice-cold 0.32M sucrose containing 1 mM pargyline using an Ultra-Turrax homogenizer. Monoamine oxidase activity will be inhibited in the presence of pargyline. The homogenate is centrifuged at 1000×g for 10 min. The resulting supernatant is then centrifuged at 27,000×g for 50 min and the supernatant is discarded. The pellet (P2) is resuspended in oxygenated (equilibrated with an atmosphere of 96% O2: 4% CO2 for at least 30 min) Krebs-Ringer incubation buffer (1000 ml per g of original tissue) at pH 7.2 containing 122 mM NaCl, 0.16 mM EDTA, 4.8 mM KCl, 12.7 mM Na2HPO4, 3.0 mM NaH2PO4, 1.2 mM MgSO4, 1 mM CaCl2, 10 mM glucose and 1 mM ascorbic acid.
(§4) Assay: Aliquots of 4.0 ml tissue suspension are added to 100 μl of test solution and 100 μl of ^3H-5-HT (1 nM, final concentration), mixed and incubated for 30 min at 37° C. Non-specific uptake is determined using citalopram (1 μM, final concentration). After incubation the samples are poured directly onto Whatman GF/C glass fibre filters under suction. The filters are then washed three times with 5 ml of ice-cold 0.9% (w/v) NaCl solution. The amount of radioactivity on the filters is determined by conventional liquid scintillation counting. Specific uptake is calculated as the difference between total uptake and non-specific uptake.
(§5) 25-75% inhibition of specific binding must be obtained, before calculation of an IC50.
The test value is given as IC50 (the concentration (μM) of the test substance which inhibits the specific binding of ^3H-5-HT by 50%).

[2] = molecular target: T2, dopamine transporter/uptake site (3H-DA uptake, striatal synaptosomes) (Rattus norvegicus, UniProt P23977); test: In vitro inhibition of 3H-dopamine (3H-DA) uptake in striatal synaptosomes
T2 construct: Corpi striati from male Wistar rats (150-200 g) are homogenised; from tissue; host or cells: rat corpus striatum, P2 synaptosomal pellet
Excerpt: as §1, §2
In vitro Inhibition of ^3H-dopamine (^3H-DA) Uptake in Striatal Synaptosomes
as §3, with “preparations:” for “Preparation:”, “Corpi striati” for “Cerebral cortices”, “(8000” for “(1000”
as §4, with “^3H-DA” for “^3H-5-HT”, “25” for “30”, “benztropine (10” for “citalopram (1”
as §5
The test value is given as IC50 (the concentration (μM) of the test substance which inhibits the specific binding of ^3H-DA by 50%).

[3] = molecular target: noradrenaline transporter/uptake site (3H-NA uptake, hippocampal synaptosomes) (Rattus norvegicus, UniProt Q9WTR4); test: In vitro inhibition of 3H-noradrenaline (3H-NA) uptake in hippocampal synaptosomes
Excerpt: as §1, §2
In vitro Inhibition of ^3H-noradrenaline (^3H-NA) Uptake in Hippocampal Synaptosomes
as §3, with “Tissue preparation:” for “Tissue Preparation:”, “indicated. Hippocampi” for “indicated. Cerebral cortices”, “buffer (2000” for “buffer (1000”, “per […]” for “per g”, “MgSO4, 0.97” for “MgSO4, 1”
as §4, with “^3H-NA” for “^3H-5-HT”, “90” for “30”, “desipramine” for “citalopram”
as §5
The test value is given as IC50 (the concentration (μM) of the test substance which inhibits the specific binding of ^3H-NA by 50%).

[4] = 5-HT-uptake IC50, Table 2, value ± spread
[5] = DA-uptake IC50, Table 1, 3H-DA 1 nM, 25 min at 37° C.
[6] = DA-uptake IC50, Table 2, value ± spread
[7] = read-out: NA-uptake IC50, Table 1, 3H-NA 1 nM, 90 min at 37° C.
[8] = read-out: NA-uptake IC50, Table 2, value ± spread
[9] = 5-HT-uptake IC50, Table 1, 3H-5-HT 1 nM, 30 min at 37° C.

T2 sequence (P23977 whole entry): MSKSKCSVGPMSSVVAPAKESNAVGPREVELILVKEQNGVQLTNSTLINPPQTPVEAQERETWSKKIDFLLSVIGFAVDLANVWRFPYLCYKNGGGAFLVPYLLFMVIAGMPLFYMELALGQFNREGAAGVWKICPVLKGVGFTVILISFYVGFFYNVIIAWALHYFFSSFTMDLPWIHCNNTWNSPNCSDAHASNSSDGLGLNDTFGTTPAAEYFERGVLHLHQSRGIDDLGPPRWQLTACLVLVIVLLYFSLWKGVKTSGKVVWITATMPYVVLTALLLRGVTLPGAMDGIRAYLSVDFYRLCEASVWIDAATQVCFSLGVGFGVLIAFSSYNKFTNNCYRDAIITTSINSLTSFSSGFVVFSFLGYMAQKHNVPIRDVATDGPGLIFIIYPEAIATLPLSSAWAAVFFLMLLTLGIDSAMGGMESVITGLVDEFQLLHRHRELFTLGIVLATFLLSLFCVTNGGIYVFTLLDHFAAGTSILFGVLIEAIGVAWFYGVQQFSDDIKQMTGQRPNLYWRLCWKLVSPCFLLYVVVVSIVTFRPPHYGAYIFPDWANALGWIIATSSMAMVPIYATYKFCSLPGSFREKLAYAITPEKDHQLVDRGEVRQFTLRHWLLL
T1 sequence (P31652 whole entry): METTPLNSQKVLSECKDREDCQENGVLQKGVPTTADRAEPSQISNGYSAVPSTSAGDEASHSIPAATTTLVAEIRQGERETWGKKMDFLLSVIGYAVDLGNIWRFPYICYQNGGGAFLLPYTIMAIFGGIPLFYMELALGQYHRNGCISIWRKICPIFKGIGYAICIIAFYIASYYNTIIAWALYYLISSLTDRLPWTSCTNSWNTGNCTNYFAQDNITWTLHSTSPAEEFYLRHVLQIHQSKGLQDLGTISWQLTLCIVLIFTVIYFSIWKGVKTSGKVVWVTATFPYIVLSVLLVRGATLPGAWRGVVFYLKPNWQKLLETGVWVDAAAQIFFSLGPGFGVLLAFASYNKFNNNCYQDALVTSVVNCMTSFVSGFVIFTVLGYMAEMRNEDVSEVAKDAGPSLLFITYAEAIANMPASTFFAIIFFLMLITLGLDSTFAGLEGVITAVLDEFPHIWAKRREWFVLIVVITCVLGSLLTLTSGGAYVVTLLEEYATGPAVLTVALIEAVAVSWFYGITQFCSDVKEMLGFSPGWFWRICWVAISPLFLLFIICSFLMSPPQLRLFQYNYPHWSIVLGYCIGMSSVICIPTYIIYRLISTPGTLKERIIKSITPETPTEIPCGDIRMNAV

FC(F)(F)Oc1ccc(C2=CC3CCC(C2)N3)cc1 (single isomer, unassigned) [3-(4-trifluoromethoxyphenyl)-8-azabicyclo[3.2.1]oct-2-ene (enantiomer B*), 3-(4-trifluoromethoxyphenyl)-8-azabicyclo[3.2.1]oct-2-ene]
IC50 [1, 4]: 0.012 ± 0.006 µM

CN1C2C=C(c3ccc(OC(F)(F)F)cc3)CC1CC2 (racemic) [(±)-3-(4-trifluoromethoxyphenyl)-8-methyl-8-azabicyclo[3.2.1]oct-2-ene]
IC50 [2, 5]: 22 µM
IC50 [2, 6]: 21.3 ± 1.2 µM
IC50 [3, 7]: 8 µM
IC50 [3, 8]: 12 ± 2.3 µM
IC50 [1, 9]: 0.0036 µM
IC50 [1, 4]: 0.0035 ± 0.0003 µM
greater potency as inhibitors of serotonine uptake than of either noradrenaline or dopamine uptake [1]: 3000 fold

CN1C2C=C(c3ccc(C#N)cc3)CC1CC2 (racemic) [(±)-3-(4-cyanophenyl)-8-methyl-8-azabicyclo(3.2.1]oct-2-ene]
IC50 [2, 5]: 18 µM
IC50 [3, 7]: 4.9 µM
IC50 [1, 9]: 0.047 µM

FC(F)(F)Oc1ccc(C2=CC3CCC(C2)N3)cc1 (racemic) [(±)-3-(4-trifluoromethoxyphenyl)-8-azabicyclo[3.2.1]oct-2-ene (racemate), (±)-3-(4-trifluoromethoxyphenyl)-8-azabicyclo[3.2.1]oct-2-ene]
IC50 [2, 6]: 18.7 ± 3.5 µM
IC50 [3, 8]: 15.6 ± 3.5 µM
IC50 [1, 4]: 0.0048 ± 0.0006 µM
greater potency as inhibitors of serotonine uptake than of either noradrenaline or dopamine uptake [1]: 3000 fold

CN1C2C=C(c3ccc([N+](=O)[O-])cc3)CC1CC2 (racemic) [(±)-3-(4-nitrophenyl)-8-methyl-8-azabicyclo[3.2.1]oct-2-ene]
IC50 [2, 5]: 1.5 µM
IC50 [3, 7]: 0.5 µM
IC50 [1, 9]: 0.016 µM

FC(F)(F)Oc1ccc(C2=CC3CCC(C2)N3)cc1 (single isomer, unassigned) [3-(4-trifluoromethoxyphenyl)-8-azabicyclo[3.2.1]oct-2-ene (enantiomer A*), 3-(4-trifluoromethoxyphenyl)-8-azabicyclo[3.2.1]oct-2-ene]
IC50 [1, 4]: 0.022 ± 0.012 µM
